Here are results for 22 compounds from patent publication US7741327B2 (Hoffmann-La Roche Inc., priority 2008, dated 2010).

The target of one experiment is T1, Recombinant human liver GK1 (GST-GK) (Homo sapiens, UniProt P35557).
T1 construct: made in house; host or cells: E. coli
T1 sequence (P35557 1-466 isoform P35557-2): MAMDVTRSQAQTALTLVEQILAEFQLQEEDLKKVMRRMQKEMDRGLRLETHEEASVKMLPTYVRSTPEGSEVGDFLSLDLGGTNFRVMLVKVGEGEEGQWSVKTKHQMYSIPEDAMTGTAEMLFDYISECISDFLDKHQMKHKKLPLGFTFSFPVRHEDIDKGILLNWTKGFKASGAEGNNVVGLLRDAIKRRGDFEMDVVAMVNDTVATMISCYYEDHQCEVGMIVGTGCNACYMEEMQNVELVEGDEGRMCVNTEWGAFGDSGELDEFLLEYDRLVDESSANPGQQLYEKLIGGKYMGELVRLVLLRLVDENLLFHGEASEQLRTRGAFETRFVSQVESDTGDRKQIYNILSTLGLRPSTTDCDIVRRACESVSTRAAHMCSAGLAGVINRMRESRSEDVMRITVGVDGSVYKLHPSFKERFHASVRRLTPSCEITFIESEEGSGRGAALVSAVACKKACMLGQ
The experiment can be described thus: In vitro glucokinase activity (G6PDH-coupled NADH assay). Format: biochemical. The conditions noted are these: 30° C., 5 mM D-glucose, 10% DMSO. In a few lines:
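Activation measured as the rate of OD340 rise from G6PDH-coupled NADH production, relative to 10% DMSO control, reported as SC1.5 (concentration for 50% activity increase). Conditions: 30° C, pH 7.1 Hepes, 5 mM glucose, 1 mM ATP, purified recombinant GST-human GK1, compound preincubated 10 min before enzyme addition.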
On to `O=C(Nc1ccn(C[C@@H](O)CO)n1)C(CC(F)(F)F)N1CC(Oc2ccccc2Cl)=CC1=O` (stereo partly drawn) [Example 224, 2-[4-(2-Chloro-phenoxy)-2-oxo-2,5-dihydro-pyrrol-1-yl]-N-[1-((R)-2,3-dihydroxy-propyl)-1H-pyrazol-3-yl]-4,4,4-trifluoro-butyramide], for which the “SC1.5 (concentration of activator that produced a 50% increase in the activity of GK)” value is above 30 µM.

Turning to `CC(C)(O)Cn1ccc(NC(=O)C(Cc2c(Cl)cccc2Cl)N2CC(Oc3c(F)cccc3F)=CC2=O)n1` (stereo not drawn) [Example 225, 3-(2,6-Dichloro-phenyl)-2-[4-(2,6-difluoro-phenoxy)-2-oxo-2,5-dihydro-pyrrol-1-yl]-N-[1-(2-hydroxy-2-methyl-propyl)-1H-pyrazol-3-yl]-propionamide], the “SC1.5 (concentration of activator that produced a 50% increase in the activity of GK)” value is above 30 µM.

`CC(CC(C(=O)Nc1ccn(CC(C)(C)O)n1)N1CC(Oc2ccccc2Cl)=CC1=O)C(F)(F)F` (stereo not drawn) [Example 226, 2-[4-(2-Chloro-phenoxy)-2-oxo-2,5-dihydro-pyrrol-1-yl]-5,5,5-trifluoro-4-methyl-pentanoic acid [1-(2-hydroxy-2-methyl-propyl)-1H-pyrazol-3-yl]-amide]: the “SC1.5 (concentration of activator that produced a 50% increase in the activity of GK)” value is 0.944 µM.

`CC(C)(C)CCC(C(=O)Nc1ccn(C[C@@H](O)CO)n1)N1CC(Oc2ccccc2Cl)=CC1=O` (stereo partly drawn) [Example 227, 2-[4-(2-Chloro-phenoxy)-2-oxo-2,5-dihydro-pyrrol-1-yl]-5,5-dimethyl-hexanoic acid [1-((R)-2,3-dihydroxy-propyl)-1H-pyrazol-3-yl]amide]: the “SC1.5 (concentration of activator that produced a 50% increase in the activity of GK)” value worked out at 16.668 µM.

Regarding `CC(C)(O)Cn1ccc(NC(=O)C(CC2CC3CCC2C3)N2CC(Oc3c(F)cccc3F)=CC2=O)n1` (stereo not drawn) [Example 228, 3-Bicyclo[2.2.1]hept-2-yl-2-[4-(2,6-difluoro-phenoxy)-2-oxo-2,5-dihydro-pyrrol-1-yl]-N-[1-(2-hydroxy-2-methyl-propyl)-1H-pyrazol-3-yl]-propionamide], the “SC1.5 (concentration of activator that produced a 50% increase in the activity of GK)” value amounted to 0.365 µM.

Regarding `CC(C)(O)Cn1ccc(NC(=O)C(CC2C3CCC2CC3)N2CC(Oc3ccccc3Cl)=CC2=O)n1` (stereo not drawn) [Example 229, 3-bicyclo[2.2.1]hept-7-yl-2-[4-(2-chloro-phenoxy)-2-oxo-2,5-dihydro-pyrrol-1-yl]-N-[1-(2-hydroxy-2-methyl-propyl)-1H-pyrazol-3-yl]-propionamide], the “SC1.5 (concentration of activator that produced a 50% increase in the activity of GK)” value was 1.109 µM.

In the case of `COCC[C@@H](C(=O)Nc1ccn(C[C@@H](O)CO)n1)N1CC(Oc2ccccc2Cl)=CC1=O` [Example 230, (S)-2-[4-(2-Chloro-phenoxy)-2-oxo-2,5-dihydro-pyrrol-1-yl]-N-[1-((R)-2,3-dihydroxy-propyl)-1H-pyrazol-3-yl]-4-methoxy-butyramide], the “SC1.5 (concentration of activator that produced a 50% increase in the activity of GK)” value is 6.139 µM.

With `CC(C)(O)Cn1ccc(NC(=O)[C@H](CC2CCCCC2)N2CC(Nc3ccc(Cl)c(Cl)c3)=CC2=O)n1` [Example 231, (S)-3-Cyclohexyl-2-[4-(3,4-dichloro-phenylamino)-2-oxo-2,5-dihydro-pyrrol-1-yl]-N-[1-(2-hydroxy-2-methyl-propyl)-1H-pyrazol-3-yl]-propionamide], the “SC1.5 (concentration of activator that produced a 50% increase in the activity of GK)” value came out at 5.931 µM.

For the compound `CC(C)NC1=CC(=O)N([C@@H](CC2CCCCC2)C(=O)Nc2ccn(CC(C)(C)O)n2)C1` [Example 232, (S)-3-cyclohexyl-N-[1-(2-hydroxy-2-methyl-propyl)-1H-pyrazol-3-yl]-2-(4-isopropylamino-2-oxo-2,5-dihydro-pyrrol-1-yl)-propionamide], the “SC1.5 (concentration of activator that produced a 50% increase in the activity of GK)” value was found to be 12.232 µM.

Turning to `CCN(C)C1=CC(=O)N([C@@H](CC2CCCCC2)C(=O)Nc2ccn(CC(C)(C)O)n2)C1` [Example 233, (S)-3-cyclohexyl-2-[4-(ethyl-methyl-amino)-2-oxo-2,5-dihydro-pyrrol-1-yl]-N-[1-(2-hydroxy-2-methyl-propyl)-1H-pyrazol-3-yl]-propionamide], the “SC1.5 (concentration of activator that produced a 50% increase in the activity of GK)” value came out at 13.348 µM.

As to `CC(C)NC1=CC(=O)N([C@@H](CC2CCCC2)C(=O)Nc2ccn(CC(C)(C)O)n2)C1` [Example 234, (S)-3-cyclopentyl-N-[1-(2-hydroxy-2-methyl-propyl)-1H-pyrazol-3-yl]-2-(4-isopropylamino-2-oxo-2,5-dihydro-pyrrol-1-yl)-propionamide], the “SC1.5 (concentration of activator that produced a 50% increase in the activity of GK)” value was found to be 4.624 µM.

For `CC(C)C[C@@H](C(=O)Nc1ccn(C)n1)N1CC(Oc2cccc(CC(C)(C)O)c2)=CC1=O` [Example 235, (S)-2-{4-[3-(2-Hydroxy-2-methyl-propyl)-phenoxy]-2-oxo-2,5-dihydro-pyrrol-1-yl}-4-methyl-pentanoic acid (1-methyl-1H-pyrazol-3-yl)-amide], the “SC1.5 (concentration of activator that produced a 50% increase in the activity of GK)” value was determined as 2.061 µM.

Regarding `CC(C)C[C@@H](C(=O)Nc1ccn(CC(C)(C)O)n1)N1CC(Oc2cccc(CC(C)(C)O)c2)=CC1=O` [Example 236, (S)-2-{4-[3-(2-Hydroxy-2-methyl-propyl)-phenoxy]-2-oxo-2,5-dihydro-pyrrol-1-yl}-4-methyl-pentanoic acid [1-(2-hydroxy-2-methyl-propyl)-1H-pyrazol-3-yl]-amide], the “SC1.5 (concentration of activator that produced a 50% increase in the activity of GK)” value worked out at 0.823 µM.

`CC(C)C[C@@H](C(=O)Nc1ccn(C[C@@H]2COC(C)(C)O2)n1)N1CC(Oc2cccc(CC(C)(C)O)c2)=CC1=O` [Example 237, (S)-2-{4-[3-(2-Hydroxy-2-methyl-propyl)-phenoxy]-2-oxo-2,5-dihydro-pyrrol-1-yl}-4-methyl-pentanoic acid [1-((R)-2,2-dimethyl-[1,3]dioxolan-4-ylmethyl)-1H-pyrazol-3-yl]-amide]: the “SC1.5 (concentration of activator that produced a 50% increase in the activity of GK)” value turned out to be 1.969 µM.

In the case of `CC(C)C[C@@H](C(=O)Nc1ccn(C[C@@H](O)CO)n1)N1CC(Oc2cccc(CC(C)(C)O)c2)=CC1=O` [Example 238, (S)-2-{4-[3-(2-Hydroxy-2-methyl-propyl)-phenoxy]-2-oxo-2,5-dihydro-pyrrol-1-yl}-4-methyl-pentanoic acid [1-((R)-2,3-dihydroxy-propyl)-1H-pyrazol-3-yl]-amide], the “SC1.5 (concentration of activator that produced a 50% increase in the activity of GK)” value came to 1.125 µM.

With `CC(C)C[C@@H](C(=O)Nc1ccn(C[C@@H](O)CO)n1)N1CC(Oc2cccc3c2cnn3C)=CC1=O` [Example 240, (S)-4-Methyl-2-[4-(1-methyl-1H-indazol-4-yloxy)-2-oxo-2,5-dihydro-pyrrol-1-yl]-pentanoic acid [1-((R)-2,3-dihydroxy-propyl)-1H-pyrazol-3-yl]-amide], the “SC1.5 (concentration of activator that produced a 50% increase in the activity of GK)” value is 2.636 µM.

For the compound `CC(C)C[C@@H](C(=O)Nc1ccn(CC(C)(C)O)n1)N1CC(Oc2cccc(O)c2N)=CC1=O` [Example 241, (S)-2-[4-(2-Amino-3-hydroxy-phenoxy)-2-oxo-2,5-dihydro-pyrrol-1-yl]-4-methyl-pentanoic acid [1-(2-hydroxy-2-methyl-propyl)-1H-pyrazol-3-yl]-amide], the “SC1.5 (concentration of activator that produced a 50% increase in the activity of GK)” value came out at 2.458 µM.

As to `CC(C)C[C@@H](C(=O)Nc1ccn(CC(C)(C)O)n1)N1CC(Oc2cccc3ocnc23)=CC1=O` [Example 242, (S)-2-[4-(Benzooxazol-4-yloxy)-2-oxo-2,5-dihydro-pyrrol-1-yl]-4-methyl-pentanoic acid [1-(2-hydroxy-2-methyl-propyl)-1H-pyrazol-3-yl]-amide], the “SC1.5 (concentration of activator that produced a 50% increase in the activity of GK)” value stood at 3.036 µM.

Regarding `Cc1nc2c(OC3=CC(=O)N([C@@H](CC(C)C)C(=O)Nc4ccn(CC(C)(C)O)n4)C3)cccc2o1` [Example 243, (S)-4-Methyl-2-[4-(2-methyl-benzooxazol-4-yloxy)-2-oxo-2,5-dihydro-pyrrol-1-yl]-pentanoic acid [1-(2-hydroxy-2-methyl-propyl)-1H-pyrazol-3-yl]-amide], the “SC1.5 (concentration of activator that produced a 50% increase in the activity of GK)” value is 7.56 µM.

For the compound `CC(C)C[C@@H](C(=O)Nc1cnccn1)N1CC(Oc2ccc(C[C@H](O)CO)cc2)=CC1=O` [Example 244, (S)-2-{4-[4-((S)-2,3-Dihydroxy-propyl)-phenoxy]-2-oxo-2,5-dihydro-pyrrol-1-yl}-4-methyl-pentanoic acid pyrazin-2-ylamide], the “SC1.5 (concentration of activator that produced a 50% increase in the activity of GK)” value amounted to 0.158 µM.

In the case of `CC(C)C[C@@H](C(=O)Nc1cnccn1)N1CC(Oc2ccc(CC(C)(C)O)cc2)=CC1=O` [Example 245, (S)-2-{4-[4-(2-Hydroxy-2-methyl-propyl)-phenoxy]-2-oxo-2,5-dihydro-pyrrol-1-yl}-4-methyl-pentanoic acid pyrazin-2-ylamide], the “SC1.5 (concentration of activator that produced a 50% increase in the activity of GK)” value came to 3.668 µM.

For `CC(C)C[C@@H](C(=O)Nc1cnccn1)N1CC(Oc2cccc(CC(C)(C)O)c2)=CC1=O` [Example 246, (S)-2-{4-[3-(2-Hydroxy-2-methyl-propyl)-phenoxy]-2-oxo-2,5-dihydro-pyrrol-1-yl}-4-methyl-pentanoic acid pyrazin-2-ylamide], the “SC1.5 (concentration of activator that produced a 50% increase in the activity of GK)” value stood at 1.708 µM.

Still in this experiment, the particulars now being: at 30 μM test compound.
Turning to `O=C(Nc1ccn(C[C@@H](O)CO)n1)C(CC(F)(F)F)N1CC(Oc2ccccc2Cl)=CC1=O` (stereo partly drawn) [Example 224, 2-[4-(2-Chloro-phenoxy)-2-oxo-2,5-dihydro-pyrrol-1-yl]-N-[1-((R)-2,3-dihydroxy-propyl)-1H-pyrazol-3-yl]-4,4,4-trifluoro-butyramide], the “fold act. @ 30 μM” value turned out to be 1.4 fold.

On to `CC(C)(O)Cn1ccc(NC(=O)C(Cc2c(Cl)cccc2Cl)N2CC(Oc3c(F)cccc3F)=CC2=O)n1` (stereo not drawn) [Example 225, 3-(2,6-Dichloro-phenyl)-2-[4-(2,6-difluoro-phenoxy)-2-oxo-2,5-dihydro-pyrrol-1-yl]-N-[1-(2-hydroxy-2-methyl-propyl)-1H-pyrazol-3-yl]-propionamide], for which the “fold act. @ 30 μM” value is listed as 1.4 fold.
